Source: PubChem BioAssay AID330 (DTP/NCI, 2004)
Where “and” joins values, the source holds several entries; their conditions need not be identical. Identical values can stand only once. Toxic doses and inconclusive results are not listed. Rule for the calls: active = survival T/C of 150% or more; inactive = T/C below 125% in these data.

System: P388 leukemia ip, CD2F1 mice, survival T/C
Test: NCI In Vivo Anticancer Drug Screen. Data for tumor model P388 Leukemia (intraperitoneal) in CD2F1 (CDF1) mice
Conditions: endpoint: median survival time, higher = longer survival
How it was run: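 Mice carrying the transplanted tumor received test compound or vehicle. Survival was recorded in each group, and the value is the treated-group measurement divided by that of the vehicle-treated control group.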

[1] = dose: 12.5 mg/kg/injection, schedule: Q01DX009 (ip), vehicle: saline
[2] = dose: 25.0 mg/kg/injection, schedule: Q01DX009 (ip), vehicle: saline
[3] = dose: 50.0 mg/kg/injection, schedule: Q01DX009 (ip), vehicle: saline
[4] = dose: 100.0 mg/kg/injection, schedule: Q01DX009 (ip), vehicle: saline
[5] = dose: 200.0 mg/kg/injection, schedule: Q01DX009 (ip), vehicle: saline

Measured: T/C

O=C(Cn1ccnc1[N+](=O)[O-])N(CCO)CCO
inactive: dose: 6.25 mg/kg/injection, schedule: Q01DX009 (ip), vehicle: saline 102 % of control | [1] 111 % of control | [2] 111 % of control | [3] 105 % of control | [4] 105 % of control | [5] 102 % of control | dose: 400.0 mg/kg/injection, schedule: Q01DX009 (ip), vehicle: saline 105 % of control | dose: 800.0 mg/kg/injection, schedule: Q01DX009 (ip), vehicle: saline 102 % of control

N#Cc1cccnc1.NCCNCCN.[Br-].[Pt+4]
inactive: [1] 100 % of control | [2] 96 % of control | [3] 105 % of control | [4] 103 % of control | [5] 102 % of control

COc1ccc(OC)c(/C=C2/C(=O)ON=C2C)c1
inactive: dose: 60.0 mg/kg/injection, schedule: Q01DX005 (ip), vehicle: saline with Tween-80 114 % of control | dose: 120.0 mg/kg/injection, schedule: Q01DX005 (ip), vehicle: saline with Tween-80 111 % of control

COc1cc2c(cc1O)-c1oncc1CCC2
inactive: dose: 100.0 mg/kg/injection, schedule: Q04DX002 (ip), vehicle: saline 94 % of control | dose: 200.0 mg/kg/injection, schedule: Q04DX002 (ip), vehicle: saline 98 % of control | dose: 400.0 mg/kg/injection, schedule: Q04DX002 (ip), vehicle: saline 95 % of control

O=C(Nc1ccc(C2=NCCN2)cc1)c1ccc(C(=O)Nc2ccc(C3=NCCN3)cc2)c(Cl)c1
inactive: dose: 0.2 mg/kg/injection, schedule: Q01DX009 (ip), vehicle: saline with Tween-80 99 % of control | dose: 0.39 mg/kg/injection, schedule: Q01DX009 (ip), vehicle: saline with Tween-80 117 % of control | dose: 0.78 mg/kg/injection, schedule: Q01DX009 (ip), vehicle: saline with Tween-80 122 % of control | dose: 45.0 mg/kg/injection, schedule: Q04DX003 (ip), vehicle: saline 95 % of control
active: dose: 20.0 mg/kg/injection, schedule: Q01DX010 (ip), vehicle: water 163 % of control

COc1cc2c(cc1C(C)c1ccc(OCc3ccccc3)cc1)OCO2 (stereo unspecified)
inactive: dose: 25.0 mg/kg/injection, schedule: Q01DX005 (ip), vehicle: distilled water + Tween-80 99 % of control | dose: 50.0 mg/kg/injection, schedule: Q01DX005 (ip), vehicle: distilled water + Tween-80 98 % of control | dose: 100.0 mg/kg/injection, schedule: Q01DX005 (ip), vehicle: distilled water + Tween-80 90 % of control and 94 % of control | dose: 200.0 mg/kg/injection, schedule: Q01DX005 (ip), vehicle: distilled water + Tween-80 90 % of control and 91 % of control

O=C1C2CCCC1C(c1ccc(Cl)cc1)NC2c1ccc(Cl)cc1 (stereo unspecified)
inactive: dose: 100.0 mg/kg/injection, schedule: Q04DX003 (ip), vehicle: saline 103 % of control | dose: 200.0 mg/kg/injection, schedule: Q04DX003 (ip), vehicle: saline 103 % of control | dose: 400.0 mg/kg/injection, schedule: Q04DX003 (ip), vehicle: saline 96 % of control

COc1ccc(N=Cc2ccc(C(N)=S)cc2)cc1
inactive: dose: 50.0 mg/kg/injection, schedule: Q01DX001 (ip), vehicle: Klucel (hydroxypropylcellulose) (HPC) 107 % of control | dose: 100.0 mg/kg/injection, schedule: Q01DX001 (ip), vehicle: Klucel (hydroxypropylcellulose) (HPC) 102 % of control | dose: 200.0 mg/kg/injection, schedule: Q01DX001 (ip), vehicle: Klucel (hydroxypropylcellulose) (HPC) 98 % of control

Cc1cc(NC(=O)C(=O)CC(=O)c2ccc(Cl)s2)no1
inactive: dose: 100.0 mg/kg/injection, schedule: Q04DX002 (ip), vehicle: saline with Tween-80 99 % of control | dose: 200.0 mg/kg/injection, schedule: Q04DX002 (ip), vehicle: saline with Tween-80 104 % of control | dose: 400.0 mg/kg/injection, schedule: Q04DX002 (ip), vehicle: saline with Tween-80 107 % of control

CCOC(=O)CC(C)=N
inactive: dose: 25.0 mg/kg/injection, schedule: Q01DX009 (ip), vehicle: saline with Tween-80 112 % of control | dose: 50.0 mg/kg/injection, schedule: Q01DX009 (ip), vehicle: saline with Tween-80 99 % of control and 110 % of control and 114 % of control | dose: 100.0 mg/kg/injection, schedule: Q01DX009 (ip), vehicle: saline with Tween-80 106 % of control and 107 % of control and 113 % of control | dose: 200.0 mg/kg/injection, schedule: Q01DX009 (ip), vehicle: saline with Tween-80 103 % of control and 109 % of control and 123 % of control | dose: 400.0 mg/kg/injection, schedule: Q01DX009 (ip), vehicle: saline with Tween-80 103 % of control and 105 % of control
